The values below are quoted from earlier work in patent US6733793B2, “Oral composition with insulin-like activities and methods of use” (MetaProteomics, LLC, priority 2002, dated 2004).

The conditions of data set [1]: rats, inhaled.
Data set [2] relates to bovine papilloma virus DNA-tranfected C3H/10T1/2 cells. Particulars: in vitro, bovine papilloma virus DNA-transfected C3H/10T1/2 cells.

As to `O=S(=O)([O-])[O-].[O]=[V+2]` [Vanadyl sulfate], the Pulmonary inflammation entry in data set [1] is “induce pulmonary inflammation”. In addition, in data set [2], the Tumor promotion activity result is reported as “possess tumor promotion activity”. Also, in the data set on fruit fly, the “Chromosomal damage and mitotic recombination” value was “induce chromosomal damage and mitotic recombination”.
